Assay results as given in patent US20240246964A1 (Arbutus Biopharma Corporation, priority 2021, published 2024).

Each compound was assayed against human PD-L1 (Homo sapiens (Human), UniProt Q9NZQ7) (assay: T cell activation luciferase reporter cell culture system (T Cell Activation Assay)). Conditions: luciferase reporter assay; PD-L1 aAPC/CHO-K1 cells with PD-1 effector Jurkat T cells.
Type: cell-based

human PD-L1, sequence (Q9NZQ7 19-290): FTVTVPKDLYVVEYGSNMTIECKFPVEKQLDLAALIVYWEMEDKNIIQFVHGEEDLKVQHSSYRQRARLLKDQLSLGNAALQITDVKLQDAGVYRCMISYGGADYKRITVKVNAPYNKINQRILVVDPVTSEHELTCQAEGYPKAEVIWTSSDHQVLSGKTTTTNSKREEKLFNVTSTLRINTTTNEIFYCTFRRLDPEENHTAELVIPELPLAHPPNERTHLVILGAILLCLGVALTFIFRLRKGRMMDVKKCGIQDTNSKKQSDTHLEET

Row | SMILES | EC50 [µM]
1 | COc1nc(-c2cccc(-c3ccnc(-c4cc(OC)c5nc(CNCCC6(C(=O)O)CC6)cn5c4)c3Cl)c2Cl)ccc1CNC[C@@H]1CCC(=O)N1 [Example 351, (S)-1-(2-(((6-(3-Chloro-4-(2-chloro-3-(6-methoxy-5-((((5-oxopyrrolidin-2-yl)methyl)amino)methyl)pyridin-2-yl)phenyl)pyridin-2-yl)-8-methoxyimidazo[1,2-a]pyridin-2-yl)methyl)amino)ethyl)cyclopropane-1-carboxylic acid] | 0.146
2 | COc1cc(-c2nccc(-c3cccc(-c4ccc(CNC5CCN(C(C)=O)CC5)c(OC)n4)c3Cl)c2Cl)ccc1CN1CCC(CO)CC1 [Example 508, 1-(4-(((6-(2-Chloro-3-(3-chloro-2-(4-((4-(hydroxymethyl)piperidin-1-yl)methyl)-3-methoxyphenyl)pyridin-4-yl)phenyl)-2-methoxypyridin-3-yl)methyl)amino)piperidin-1-yl)ethan-1-one] | 0.0351
3 | COc1cc(-c2nccc(-c3cccc(-c4ccc5c(CN(C)C6CCN(C(C)=O)CC6)cn(C)c5n4)c3Cl)c2Cl)ccc1CNC1CCN(C(C)=O)CC1 [Example 264, 1-(4-((4-(4-(3-(3-(((1-acetylpiperidin-4-yl)(methyl)amino)methyl)-1-methyl-1H-pyrrolo[2,3-b]pyridin-6-yl)-2-chlorophenyl)-3-chloropyridin-2-yl)-2-methoxybenzyl)amino)piperidin-1-yl)ethan-1-one] | 0.0477
4 | COc1cc(-c2nccc(-c3cccc(-c4ccc(CNC5CCN(C(C)=O)CC5)c(OC)n4)c3Cl)c2Cl)ccc1CN1CC[C@H](C(=O)OC(C)C)C1 [Example 245, Isopropyl (S)-1-(4-(4-(3-(5-(((1-acetylpiperidin-4-yl)amino)methyl)-6-methoxypyridin-2-yl)-2-chlorophenyl)-3-chloropyridin-2-yl)-2-methoxybenzyl)pyrrolidine-3-carboxylate] | 0.187
5 | COc1cc(-c2nccc(-c3cccc(-c4ccc(CN5CCNC(=O)C5)c(OC)n4)c3Cl)c2Cl)ccc1CN1CCNC(=O)C1 [Example 457, 4-((6-(2-Chloro-3-(3-chloro-2-(3-methoxy-4-((3-oxopiperazin-1-yl)methyl)phenyl)pyridin-4-yl)phenyl)-2-methoxypyridin-3-yl)methyl)piperazin-2-one] | ≥ 10
6 | COc1cc(-c2nccc(-c3cccc(-c4ccc(CNC5CCN(C(C)=O)CC5)c(OC)n4)c3Cl)c2Cl)ccc1CNCCCF [Example 537, 1-(4-(((6-(2-Chloro-3-(3-chloro-2-(4-(((3-fluoropropyl)amino)methyl)-3-methoxyphenyl)pyridin-4-yl)phenyl)-2-methoxypyridin-3-yl)methyl)amino)piperidin-1-yl)ethan-1-one] | 0.0416
7 | COc1nc(-c2cccc(-c3ccnc(-c4ccc5c(c4)CCC[C@H]5NC[C@@H]4CCC(=O)N4)c3Cl)c2Cl)ccc1CN[C@H]1CCOC1=O [Example 257, (S)-5-((((R)-6-(3-Chloro-4-(2-chloro-3-(6-methoxy-5-((((S)-2-oxotetrahydrofuran-3-yl)amino)methyl)pyridin-2-yl)phenyl)pyridin-2-yl)-1,2,3,4-tetrahydronaphthalen-1-yl)amino)methyl)pyrrolidin-2-one] | ≥ 10
8 | COc1cc(-c2nccc(-c3cccc(-c4ccc(CNC[C@@H]5CCC(=O)N5)c(OC)n4)c3Cl)c2Cl)ccc1CNC1CCOCC1 [Cmpd 127, (S)-5-((((6-(2-chloro-3-(3-chloro-2-(3-methoxy-4-(((tetrahydro-2H-pyran-4-yl)amino)methyl)phenyl)pyridin-4-yl)phenyl)-2-methoxypyridin-3-yl)methyl)amino)methyl)pyrrolidin-2-one] | 0.0335
9 | COc1cc(-c2nccc(-c3cccc(NC(=O)c4ccc(CN5CC6(CNC(=O)C6)C5)cn4)c3C)c2Cl)ccc1CN1CC2(CNC(=O)C2)C1 [Example 590, N-(3-(3-Chloro-2-(3-methoxy-4-((7-oxo-2,6-diazaspiro[3.4]octan-2-yl)methyl)phenyl)pyridin-4-yl)-2-methylphenyl)-5-((7-oxo-2,6-diazaspiro[3.4]octan-2-yl)methyl)picolinamide] | 1.2
10 | COc1cc(-c2nccc(-c3cccc(-c4ccc(CN5CCC(NC(C)=O)CC5)c(OC)n4)c3Cl)c2C)ccc1CN1CCC(NC(C)=O)CC1 [Example 466, N-(1-((6-(3-(2-(4-((4-Acetamidopiperidin-1-yl)methyl)-3-methoxyphenyl)-3-methylpyridin-4-yl)-2-chlorophenyl)-2-methoxypyridin-3-yl)methyl)piperidin-4-yl)acetamide] | ≥ 10
11 | COc1cc(-c2nccc(-c3cccc(-c4ccc(CN5CC6(CNC(=O)C6)C5)c(OC)n4)c3F)c2F)ccc1CN1CC2(CNC(=O)C2)C1 [Example 451, 2-(4-(3-Fluoro-4-(2-fluoro-3-(6-methoxy-5-((7-oxo-2,6-diazaspiro[3.4]octan-2-yl)methyl)pyridin-2-yl)phenyl)pyridin-2-yl)-2-methoxybenzyl)-2,6-diazaspiro[3.4]octan-7-one] | 1.97
12 | COc1cc(-c2nccc(-c3ccnc(-c4cc(F)c(CN5CC6(CNC(=O)C6)C5)c(OC)c4)c3Cl)c2Cl)cc(F)c1CN1CC2(CNC(=O)C2)C1 [Compound 323, 2,2′-(((3,3′-Dichloro-[4,4′-bipyridine]-2,2′-diyl)bis(2-fluoro-6-methoxy-4,1-phenylene))bis(methylene))bis(2,6-diazaspiro[3.4]octan-7-one)] | 0.164
13 | COc1nc(-c2cccc(-c3ccnc(-c4cc5c(=O)n(C)c(CN6CC(C)(O)C6)nn5c4)c3Cl)c2Cl)ccc1CN[C@H]1C[C@](C)(O)C1 [Example 232, 6-(3-Chloro-4-(2-chloro-3-(5-((((1r,3r)-3-hydroxy-3-methylcyclobutyl)amino)methyl)-6-methoxypyridin-2-yl)phenyl)pyridin-2-yl)-2-((3-hydroxy-3-methylazetidin-1-yl)methyl)-3-methylpyrrolo[2,1-f][1,2,4]triazin-4(3H)-one] | 0.102

More lines, now with the values ahead:

Row | EC50 [µM] | SMILES
14 | 0.35 | COc1nc(-c2cccc(-c3ccnc(-c4cc(OC)c5nc(CN[C@H]6C[C@](C)(O)C6)nn5c4)c3Cl)c2Cl)ccc1CNC1CCN(C(C)=O)CC1 [Example 596, 1-(4-(((6-(2-Chloro-3-(3-chloro-2-(2-((((1r,3r)-3-hydroxy-3-methylcyclobutyl)amino)methyl)-8-methoxy-[1,2,4]triazolo[1,5-a]pyridin-6-yl)pyridin-4-yl)phenyl)-2-methoxypyridin-3-yl)methyl)amino)piperidin-1-yl)ethan-1-one]
15 | 0.084 | COc1nc(-c2cccc(-c3ccnc(-c4ccc5c(CNC[C@@H]6CCC(=O)N6)cn(C)c5c4)c3Cl)c2Cl)ccc1CNC[C@@H]1CCC(=O)N1 [Cmpd 11, (S)-5-((((6-(2-chloro-3-(3-chloro-2-(1-methyl-3-(((((S)-5-oxopyrrolidin-2-yl)methyl)amino)methyl)-1H-indol-6-yl)pyridin-4-yl)phenyl)-2-methoxypyridin-3-yl)methyl)amino)methyl)pyrrolidin-2-one]
16 | 0.0159 | COCC(=O)N1CCC(NCc2ccc(-c3cccc(-c4ccnc(-c5ccc(CNC6CCN(C(C)=O)CC6)c(OC)c5)c4Cl)c3Cl)nc2OC)CC1 [Example 481, 1-(4-(((6-(3-(2-(4-(((1-Acetylpiperidin-4-yl)amino)methyl)-3-methoxyphenyl)-3-chloropyridin-4-yl)-2-chlorophenyl)-2-methoxypyridin-3-yl)methyl)amino)piperidin-1-yl)-2-methoxyethan-1-one]
17 | 0.272 | COc1cc(-c2nccc(-c3cccc(-c4ccc(CNC5CCN(C(C)=O)CC5)c(OC)n4)c3C#N)c2Cl)ccc1CNC1CCN(C(C)=O)CC1 [Cmpd 615, 2-(2-(4-(((1-acetylpiperidin-4-yl)amino)methyl)-3-methoxyphenyl)-3-chloropyridin-4-yl)-6-(5-(((1-acetylpiperidin-4-yl)amino)methyl)-6-methoxypyridin-2-yl)benzonitrile]
18 | 0.0222 | COc1nc(-c2cccc(-c3ccnc(-c4ccc(CNC5CCN(C(C)=O)CC5)c(OC(F)F)c4)c3Cl)c2Cl)ccc1CNC1CCN(C(C)=O)CC1 [Example 394, 1-(4-(((6-(3-(2-(4-(((1-Acetylpiperidin-4-yl)amino)methyl)-3-(difluoromethoxy)phenyl)-3-chloropyridin-4-yl)-2-chlorophenyl)-2-methoxypyridin-3-yl)methyl)amino)piperidin-1-yl)ethan-1-one]
19 | 0.212 | COc1cc(-c2nccc(-c3cccc(-c4ccc(CN5CC6(CCN(C(C)=O)CC6)C5)c(OC)n4)c3Cl)c2Cl)ccc1CN1CC2(CCN(C(C)=O)CC2)C1 [Example 485, 1-(2-((6-(3-(2-(4-((7-Acetyl-2,7-diazaspiro[3.5]nonan-2-yl)methyl)-3-methoxyphenyl)-3-chloropyridin-4-yl)-2-chlorophenyl)-2-methoxypyridin-3-yl)methyl)-2,7-diazaspiro[3.5]nonan-7-yl)ethan-1-one]
20 | 0.0567 | COc1cc(-c2nccc(-c3cccc(-c4ccc(CN5CC6(CCNC6=O)C5)c(OC)n4)c3Cl)c2Cl)ccc1CNC1CCN(C(C)=O)CC1 [Example 525, 2-((6-(3-(2-(4-(((1-Acetylpiperidin-4-yl)amino)methyl)-3-methoxyphenyl)-3-chloropyridin-4-yl)-2-chlorophenyl)-2-methoxypyridin-3-yl)methyl)-2,6-diazaspiro[3.4] octan-5-one]
21 | 0.126 | COc1nc(-c2cccc(-c3ccnc(-c4cc(OC)c5nc(CN6CC(C(=O)O)C6)nn5c4)c3Cl)c2Cl)ccc1CNC[C@@H]1CCC(=O)N1 [Example 261, (S)-1-((6-(3-Chloro-4-(2-chloro-3-(6-methoxy-5-((((5-oxopyrrolidin-2-yl)methyl)amino)methyl)pyridin-2-yl)phenyl)pyridin-2-yl)-8-methoxy-[1,2,4]triazolo[1,5-a]pyridin-2-yl)methyl)azetidine-3-carboxylic acid]
22 | 0.0815 | COc1nc(-c2ccnc(-c3cccc(NC(=O)c4cn(C)c(=O)n(C)c4=O)c3Cl)c2Cl)ccc1CNC[C@@H]1CCC(=O)N1 [Compound 718, (S)—N-(2-Chloro-3-(3′-chloro-6-methoxy-5-((((5-oxopyrrolidin-2-yl)methyl)amino)methyl)-[2,4′-bipyridin]-2′-yl)phenyl)-1,3-dimethyl-2,4-dioxo-1,2,3,4-tetrahydropyrimidine-5-carboxamide]
